Measurements taken from US10743540B2, “3-amino-1,2,4-triazine derivatives and their use for controlling undesired plant growth” (BAYER CROPSCIENCE AKTIENGESELLSCHAFT, priority 2016, dated 2020).

What was measured:
Assay type in all cases: in vivo
VERPE: Veronica persica [1] = test: Pre-emergence herbicidal effect; settings: application rate 320 g/ha, scored visually after 3 weeks, 100% = plants have died, 0% = like control plants
Source text: (§1) 1. Pre-Emergence Herbicidal Effect and Crop Plant Compatibility Seeds of monocotyledonous and dicotyledonous weed plants and crop plants are laid out in sandy loam soil in wood-fiber pots and covered with soil. The compounds of the invention, formulated in the form of wettable powders (WP) or as emulsion concentrates (EC), are then applied to the surface of the covering soil as aqueous suspension or emulsion at a water application rate equating to 600 to 800 L/ha with addition of 0.2% wetting agent. After the treatment, the pots are placed in a greenhouse and kept under good growth conditions for the trial plants. The damage to the test plants is scored visually after a test period of 3 weeks by comparison with untreated controls (herbicidal activity in percent (%): 100% activity=the plants have died, 0% activity=like control plants). [table]

STEME: Stellaria media [2] = test: Pre-emergence herbicidal effect; settings: application rate 320 g/ha, scored visually after 3 weeks, 100% = plants have died, 0% = like control plants
Source text: as §1

[3] = test system: MATIN: Matricaria inodora; test: Pre-emergence herbicidal effect; settings: application rate 320 g/ha, scored visually after 3 weeks, 100% = plants have died, 0% = like control plants
Source text: as §1

[4] = test system: LOLMU: Lolium multiflorum; test: Pre-emergence herbicidal effect; settings: application rate 320 g/ha, scored visually after 3 weeks, 100% = plants have died, 0% = like control plants
Source text: as §1

SETVI: Setaria viridis = test: Pre-emergence herbicidal effect; settings: application rate 320 g/ha, scored visually after 3 weeks, 100% = plants have died, 0% = like control plants
Source text: as §1

[5] = test system: ALOMY: Alopecurus myosuroides; test: Pre-emergence herbicidal effect; settings: application rate 320 g/ha, scored visually after 3 weeks, 100% = plants have died, 0% = like control plants
Source text: as §1

[6] = test system: ECHCG: Echinochloa crus-galli; test: Pre-emergence herbicidal effect; settings: application rate 320 g/ha, scored visually after 3 weeks, 100% = plants have died, 0% = like control plants
Source text: as §1

[7] = test system: POLCO: Polygonum convolvulus; test: Pre-emergence herbicidal effect; settings: application rate 320 g/ha, scored visually after 3 weeks, 100% = plants have died, 0% = like control plants
Source text: as §1

VERPE: Veronica persica [8] = test: Post-emergence herbicidal effect; settings: application rate 320 g/ha, treated at one-leaf stage, assessed visually after about 3 weeks, 100% = plants have died
Procedure: (§2) [table] 2. Post-Emergence Herbicidal Effect and Crop Plant Compatibility Seeds of monocotyledonous and dicotyledonous weed and crop plants are laid out in sandy loam soil in wood-fiber pots, covered with soil and cultivated in a greenhouse under good growth conditions. 2 to 3 weeks after sowing, the test plants are treated at the one-leaf stage. The compounds of the invention, formulated in the form of wettable powders (WP) or as emulsion concentrates (EC), are then sprayed onto the green parts of the plants as aqueous suspension or emulsion at a water application rate equating to 600 to 800 L/ha with addition of 0.2% wetting agent. After the test plants have been left to stand in the greenhouse under optimal growth conditions for about 3 weeks, the action of the preparations is assessed visually in comparison to untreated controls (herbicidal action in percent (%): 100% activity=the plants have died, 0% activity=like control plants).

STEME: Stellaria media [9] = test: Post-emergence herbicidal effect; settings: application rate 320 g/ha, treated at one-leaf stage, assessed visually after about 3 weeks, 100% = plants have died
Procedure: as §2

[10] = test system: AMARE: Amaranthus retroflexus; test: Post-emergence herbicidal effect; settings: application rate 320 g/ha, treated at one-leaf stage, assessed visually after about 3 weeks, 100% = plants have died
Procedure: as §2

VIOTR: Viola tricolor = test: Post-emergence herbicidal effect; settings: application rate 320 g/ha, treated at one-leaf stage, assessed visually after about 3 weeks, 100% = plants have died
Procedure: as §2

[11] = test system: ABUTH: Abutilon theophrasti; test: Pre-emergence herbicidal effect; settings: application rate 320 g/ha, scored visually after 3 weeks, 100% = plants have died, 0% = like control plants
Source text: as §1

[12] = test system: ALOMY: Alopecurus myosuroides; test: Post-emergence herbicidal effect; settings: application rate 320 g/ha, treated at one-leaf stage, assessed visually after about 3 weeks, 100% = plants have died
Procedure: as §2

Row | Compound | Herbicidal activity with respect to [%] VERPE (VERPE: Veronica persica [1]) [%] | Herbicidal activity with respect to [%] STEME (STEME: Stellaria media [2]) [%] | Herbicidal activity with respect to [%] MATIN [3] [%] | Herbicidal activity with respect to [%] LOLMU [4] [%] | Herbicidal activity with respect to [%] SETVI (SETVI: Setaria viridis) [%] | Herbicidal activity with respect to [%] ALOMY [5] [%] | Herbicidal activity with respect to [%] ECHCG [6] [%] | Herbicidal activity with respect to [%] POLCO [7] [%] | Herbicidal activity with respect to [%] VERPE (VERPE: Veronica persica [8]) [%] | Herbicidal activity with respect to [%] STEME (STEME: Stellaria media [9]) [%] | Herbicidal activity with respect to [%] AMARE [10] [%] | Herbicidal activity with respect to [%] VIOTR (VIOTR: Viola tricolor) [%] | Herbicidal activity with respect to [%] ABUTH [11] [%] | Herbicidal activity with respect to [%] ALOMY [12] [%]
1 | Nc1nc(NC2CCCc3cc(F)ccc32)nnc1C(F)(F)F (racemic) [Example 1.46] | 100 | 100 | 100 | 90 | 100 | 90 | 100 | 100 | 80 | 100 |  |  |  | 
2 | N#Cc1nnc(NC2CCOc3ccccc32)nc1N (racemic) [Example 1.60] | 100 | 100 |  |  |  |  |  |  | 100 | 90 | 80 |  |  | 
3 | N#Cc1nnc(NC2CCOc3ccc(F)cc32)nc1N (racemic) [Example 1.64] | 100 | 100 | 90 |  | 100 |  | 100 | 100 | 100 | 90 | 100 | 80 |  | 
4 | Nc1nc(N[C@@H]2CCCc3ccccc32)nnc1Cl [Example 1.4] | 100 | 100 | 100 | 100 | 100 | 100 | 100 | 100 | 90 | 90 | 90 | 80 |  | 
5 | Cc1ccc2c(c1)[C@H](Nc1nnc(C(F)(F)F)c(N)n1)CC2 [Example 1.31] | 100 | 100 | 100 | 100 | 100 | 100 | 100 | 100 |  | 90 |  |  |  | 
6 | CCOC(=O)c1nnc(N[C@@H]2CCCc3ccccc32)nc1N [Example 1.32, Ethyl 5-amino-3-[(1R)-1,2,3,4-tetrahydronaphthalen-1-ylamino]-1,2,4-triazine-6-carboxylate] | 100 | 100 | 100 |  | 90 |  | 100 |  | 80 | 80 | 80 |  |  | 
7 | N#Cc1nnc(N[C@@H]2CCCc3ccccc32)nc1N [Example 1.37] | 100 | 100 | 100 | 100 | 100 | 100 | 100 | 100 | 100 | 100 |  |  |  | 
8 | Cc1ccc2c(c1)[C@H](Nc1nnc(C(=O)NC(C)C)c(N)n1)[C@@H](C)C2 [Example 1.39] | 100 | 100 | 100 |  | 100 | 80 | 90 | 80 | 100 | 80 |  | 90 |  | 
9 | Cc1ccc2c(c1)[C@H](Nc1nnc(C(=O)N(C)C)c(N)n1)[C@@H](C)C2 [Example 1.40] | 100 | 100 | 100 | 100 | 100 | 100 | 100 | 100 | 100 |  |  | 80 | 90 | 
10 | CNC(=O)c1nnc(N[C@H]2c3cc(C)ccc3C[C@@H]2C)nc1N [Example 1.41] | 100 | 100 | 100 | 100 | 100 | 100 | 100 | 100 | 100 |  | 80 | 80 |  | 
11 | Nc1nc(N[C@@H]2CCc3ccccc32)nnc1Cl [Example 1.59] | 100 | 100 |  | 90 | 80 |  | 80 | 80 | 80 | 100 |  |  |  | 
12 | C[S+]([O-])c1nnc(N[C@@H]2CCCc3ccccc32)nc1N (stereo partly drawn) [Example 1.65] | 100 | 100 | 100 | 100 | 100 |  | 100 | 100 | 80 | 100 |  | 80 | 90 | 
13 | CS(=O)(=O)c1nnc(N[C@@H]2CCCc3ccccc32)nc1N [Example 1.66] | 100 | 100 | 100 | 100 | 100 | 80 | 100 | 100 | 100 | 100 |  | 90 | 100 | 
14 | CNC(=O)c1nnc(N[C@@H]2CCc3ccc(C)cc32)nc1N [Example 1.76] |  |  | 100 |  | 100 | 100 | 100 | 100 |  | 100 | 80 |  | 100 | 80
15 | Cc1ccc2c(c1)[C@H](Nc1nnc(C(=O)N(C)C)c(N)n1)CC2 [Example 1.77] |  |  | 100 |  | 100 | 100 | 100 | 100 |  | 100 |  | 90 | 90 | 
